In ChEMBL document CHEMBL3526017, “Predicting the drug interaction potential of AMG 853, a dual antagonist of the D-prostanoid and chemoattractant receptor-homologous molecule expressed on T helper 2 cells receptors” (Drug Metab Dispos, 2012):

How the values were obtained:
Assay type in all cases: ADME
[1] = target: UDP-glucuronosyltransferase 1A10 (Homo sapiens, UniProt Q9HAW8); experiment: (§1) Drug metabolism assessed as human recombinant UGT1A10-mediated (2S,3S,4S,5R,6S)-6-(2-(4-(4-(tert-butylcarbamoyl)-2-(2-chloro-4-cyclopropylphenylsulfonamido)phenoxy)-5-chloro-2-fluorophenyl)acetoxy)-3,4,5-trihydroxytetrahydro-2H-pyran-2-carboxylic acid formation at 10 uM after 30 mins by LC-MS/MS analysis; details: recombinant enzyme, 0.5 h
Chain of UDP-glucuronosyltransferase 1A10 (Q9HAW8 whole entry): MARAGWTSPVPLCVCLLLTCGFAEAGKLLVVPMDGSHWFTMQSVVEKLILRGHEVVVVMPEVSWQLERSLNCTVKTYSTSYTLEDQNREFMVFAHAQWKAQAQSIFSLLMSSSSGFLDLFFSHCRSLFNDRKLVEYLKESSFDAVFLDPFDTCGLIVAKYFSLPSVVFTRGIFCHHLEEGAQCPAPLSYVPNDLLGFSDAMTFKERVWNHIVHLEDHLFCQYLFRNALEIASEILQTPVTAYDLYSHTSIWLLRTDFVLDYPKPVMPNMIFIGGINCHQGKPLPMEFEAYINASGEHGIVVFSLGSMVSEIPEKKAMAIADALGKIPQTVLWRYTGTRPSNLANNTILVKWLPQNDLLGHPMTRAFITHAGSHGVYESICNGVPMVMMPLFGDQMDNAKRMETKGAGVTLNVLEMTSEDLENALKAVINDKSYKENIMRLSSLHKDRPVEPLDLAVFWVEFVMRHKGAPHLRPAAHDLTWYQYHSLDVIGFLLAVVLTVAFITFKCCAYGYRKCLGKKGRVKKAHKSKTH

[2] = target: T1, UDP-glucuronosyltransferase 1A3 (Homo sapiens, UniProt P35503); experiment: as §1, with “UGT1A3-mediated” for “UGT1A10-mediated”; details: recombinant enzyme, 0.5 h
T1 sequence (P35503 whole entry): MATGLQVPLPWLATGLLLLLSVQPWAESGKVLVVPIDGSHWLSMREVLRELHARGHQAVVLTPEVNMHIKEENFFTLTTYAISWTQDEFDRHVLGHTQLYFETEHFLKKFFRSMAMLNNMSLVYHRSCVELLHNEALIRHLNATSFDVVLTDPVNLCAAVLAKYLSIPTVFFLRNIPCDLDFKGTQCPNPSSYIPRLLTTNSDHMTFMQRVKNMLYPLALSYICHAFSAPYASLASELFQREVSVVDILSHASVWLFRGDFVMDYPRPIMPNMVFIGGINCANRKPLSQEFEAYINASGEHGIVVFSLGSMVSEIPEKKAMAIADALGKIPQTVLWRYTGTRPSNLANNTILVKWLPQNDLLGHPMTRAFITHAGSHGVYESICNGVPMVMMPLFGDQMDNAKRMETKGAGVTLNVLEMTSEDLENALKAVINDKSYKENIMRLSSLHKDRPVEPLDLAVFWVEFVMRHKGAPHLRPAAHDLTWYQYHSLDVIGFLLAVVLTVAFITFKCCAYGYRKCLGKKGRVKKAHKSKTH

[3] = target: UDP-glucuronosyltransferase 2B4 (Homo sapiens, UniProt P06133); experiment: as §1, with “UGT2B4-mediated” for “UGT1A10-mediated”; details: recombinant enzyme, 0.5 h
Chain of UDP-glucuronosyltransferase 2B4 (P06133 whole entry): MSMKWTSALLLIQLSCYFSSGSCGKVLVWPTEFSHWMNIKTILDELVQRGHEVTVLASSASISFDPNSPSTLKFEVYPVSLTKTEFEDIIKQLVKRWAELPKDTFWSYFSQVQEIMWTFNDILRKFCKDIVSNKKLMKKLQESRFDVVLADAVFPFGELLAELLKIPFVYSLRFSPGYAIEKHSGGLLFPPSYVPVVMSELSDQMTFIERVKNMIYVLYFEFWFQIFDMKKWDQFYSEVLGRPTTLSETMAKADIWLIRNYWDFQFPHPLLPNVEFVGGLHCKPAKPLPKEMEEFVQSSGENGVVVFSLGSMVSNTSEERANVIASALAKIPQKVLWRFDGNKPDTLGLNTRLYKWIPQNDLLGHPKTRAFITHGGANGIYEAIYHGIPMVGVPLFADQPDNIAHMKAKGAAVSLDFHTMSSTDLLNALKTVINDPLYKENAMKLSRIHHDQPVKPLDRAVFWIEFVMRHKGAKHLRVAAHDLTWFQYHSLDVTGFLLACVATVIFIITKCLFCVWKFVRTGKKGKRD

[4] = target: T2, UDP-glucuronosyltransferase 2B7 (Homo sapiens, UniProt P16662); experiment: as §1, with “UGT2B7-mediated” for “UGT1A10-mediated”; details: recombinant enzyme, 0.5 h
T2 sequence (P16662 whole entry): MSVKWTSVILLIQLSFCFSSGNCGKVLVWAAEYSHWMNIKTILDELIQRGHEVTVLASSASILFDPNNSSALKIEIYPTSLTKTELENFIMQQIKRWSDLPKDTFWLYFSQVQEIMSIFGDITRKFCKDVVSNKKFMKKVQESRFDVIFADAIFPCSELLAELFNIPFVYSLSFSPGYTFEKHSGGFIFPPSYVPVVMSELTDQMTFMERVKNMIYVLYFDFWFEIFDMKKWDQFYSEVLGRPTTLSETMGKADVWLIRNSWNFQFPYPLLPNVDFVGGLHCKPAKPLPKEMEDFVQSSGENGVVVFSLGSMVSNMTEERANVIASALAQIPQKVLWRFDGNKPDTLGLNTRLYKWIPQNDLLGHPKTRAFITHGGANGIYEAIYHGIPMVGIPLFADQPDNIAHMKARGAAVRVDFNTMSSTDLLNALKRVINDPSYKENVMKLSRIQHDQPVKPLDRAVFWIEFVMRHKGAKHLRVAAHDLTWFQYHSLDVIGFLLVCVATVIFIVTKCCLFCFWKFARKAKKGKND

Cytochrome P450 2C8 = target: T3, Cytochrome P450 2C8 (Homo sapiens, UniProt P10632); experiment: Competitive inhibition of CYP2C8 in human liver microsomes assessed as rosiglitazone demethylation after 20 mins by LC-MS/MS analysis
T3 sequence (P10632 whole entry): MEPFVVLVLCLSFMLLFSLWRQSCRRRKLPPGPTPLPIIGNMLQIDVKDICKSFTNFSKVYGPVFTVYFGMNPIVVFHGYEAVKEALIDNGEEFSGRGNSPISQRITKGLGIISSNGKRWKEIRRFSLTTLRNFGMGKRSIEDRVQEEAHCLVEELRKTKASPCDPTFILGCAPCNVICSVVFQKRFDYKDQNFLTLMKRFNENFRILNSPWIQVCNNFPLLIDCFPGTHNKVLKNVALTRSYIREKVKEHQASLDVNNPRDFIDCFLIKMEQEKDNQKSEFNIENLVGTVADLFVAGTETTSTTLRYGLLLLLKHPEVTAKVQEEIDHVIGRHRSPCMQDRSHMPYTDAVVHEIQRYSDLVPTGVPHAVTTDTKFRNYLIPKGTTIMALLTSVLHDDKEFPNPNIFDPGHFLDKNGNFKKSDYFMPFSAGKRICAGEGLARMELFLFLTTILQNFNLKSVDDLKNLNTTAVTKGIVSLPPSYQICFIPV

Cytochrome P450 2J2 = target: T4, Cytochrome P450 2J2 (Homo sapiens, UniProt P51589); experiment: Drug metabolism assessed as recombinant CYP2J2 (unknown origin)-mediated 2-(4-(4-(tert-butylcarbamoyl)-2-(2-chloro-4-(1-hydroxycyclopropyl)phenylsulfonamido)phenoxy)-5-chloro-2-fluorophenyl)acetic acid formation at 10 uM after 30 mins by LC-MS/MS analysis; details: recombinant enzyme, 0.5 h
T4 sequence (P51589 whole entry): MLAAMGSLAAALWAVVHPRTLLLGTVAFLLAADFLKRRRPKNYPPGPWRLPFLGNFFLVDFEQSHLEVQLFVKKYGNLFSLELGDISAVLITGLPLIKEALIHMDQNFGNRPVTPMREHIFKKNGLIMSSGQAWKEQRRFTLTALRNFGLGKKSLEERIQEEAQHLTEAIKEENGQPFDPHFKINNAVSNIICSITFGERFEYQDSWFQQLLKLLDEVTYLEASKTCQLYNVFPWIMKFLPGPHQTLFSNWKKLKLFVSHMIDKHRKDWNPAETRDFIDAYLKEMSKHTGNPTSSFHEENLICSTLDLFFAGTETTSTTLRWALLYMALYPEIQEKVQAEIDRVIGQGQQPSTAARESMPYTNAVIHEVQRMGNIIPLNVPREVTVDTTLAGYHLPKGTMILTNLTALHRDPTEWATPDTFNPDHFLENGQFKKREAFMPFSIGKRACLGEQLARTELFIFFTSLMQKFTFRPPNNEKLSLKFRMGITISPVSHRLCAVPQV

[5] = target: UDP-glucuronosyltransferase 1A9 (Homo sapiens, UniProt O60656); experiment: as §1, with “UGT1A9-mediated” for “UGT1A10-mediated”; details: recombinant enzyme, 0.5 h
Chain of UDP-glucuronosyltransferase 1A9 (O60656 whole entry): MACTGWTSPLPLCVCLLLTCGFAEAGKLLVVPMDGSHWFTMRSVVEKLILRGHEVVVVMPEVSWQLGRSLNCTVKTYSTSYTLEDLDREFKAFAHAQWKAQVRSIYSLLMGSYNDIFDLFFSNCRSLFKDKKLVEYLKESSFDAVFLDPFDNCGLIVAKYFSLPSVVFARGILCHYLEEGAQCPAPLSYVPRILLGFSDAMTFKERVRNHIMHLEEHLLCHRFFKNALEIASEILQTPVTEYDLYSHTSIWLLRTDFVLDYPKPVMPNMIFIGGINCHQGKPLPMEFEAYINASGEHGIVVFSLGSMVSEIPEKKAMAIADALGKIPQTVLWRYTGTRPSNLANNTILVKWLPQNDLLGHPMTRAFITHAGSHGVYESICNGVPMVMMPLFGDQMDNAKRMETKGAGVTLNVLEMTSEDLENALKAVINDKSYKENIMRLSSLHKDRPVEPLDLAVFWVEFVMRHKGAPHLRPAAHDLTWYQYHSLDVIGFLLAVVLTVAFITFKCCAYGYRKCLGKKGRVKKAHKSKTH

[6] = target: T2, UDP-glucuronosyltransferase 2B7; experiment: Drug metabolism assessed as human recombinant UGT2B7-mediated compound formation treated with AMG 853 after 45 mins by LC-MS/MS analysis in presence of UDPGA; details: recombinant enzyme, 0.75 h
[7] = Drug metabolism in human liver microsomes assessed as CYP3A5*1/*1-compound formation after 15 mins by LC-MS/MS analysis in presence of UDPGA; details: 0.25 h
Liver microsome = experiment: Drug metabolism in human liver microsomes treated with AMG 853 after 45 mins by LC-MS/MS analysis in presence of UDPGA; details: 0.75 h

| Ki (Cytochrome P450 2C8) | Drug metabolism (Cytochrome P450 2J2) | S50 [6] | Vmax [6] | Drug metabolism [7] | S50 (Liver microsome) | Vmax (Liver microsome) | Structure (SMILES) | Drug metabolism [1] | Drug metabolism [2] | Drug metabolism [3] | Drug metabolism [4] | Drug metabolism [5] |
| --- | --- | --- | --- | --- | --- | --- | --- | --- | --- | --- | --- | --- |
| 6 µM | metabolite_detected | – | – | – | – | – | CC(C)(C)NC(=O)c1ccc(Oc2cc(F)c(CC(=O)O)cc2Cl)c(NS(=O)(=O)c2ccc(C3CC3)cc2Cl)c1 [VIDUPIPRANT] | metabolite_not_detected | metabolite_detected | metabolite_not_detected | metabolite_detected | metabolite_not_detected |
| – | – | 183.4 µM | 13.6 pmol/min/mg | metabolite_detected | 205.4 µM | 43 pmol/min/mg | CC(C)(C)NC(=O)c1ccc(Oc2cc(F)c(CC(=O)O[C@@H]3O[C@H](C(=O)O)[C@@H](O)[C@H](O)[C@H]3O)cc2Cl)c(NS(=O)(=O)c2ccc(C3CC3)cc2Cl)c1 | – | – | – | – | – |
